Where two headings read alike, the source gives them in different places.
How the values were obtained:
E. coli DNA gyrase = target: T1, E. coli DNA gyrase (Escherichia coli, UniProt P0AES4+P0AES6); assay: E. coli DNA gyrase supercoiling assay; type: biochemical
T1 construct: purchased Inspiralis, Norwich, UK
Description: (§1) The assay for determination of the IC50 values was performed according to previously reported procedures.
(§2) Briefly, inhibitory activities were determined using supercoiling (for DNA gyrase) and relaxation (for topoisomerase IV) assay kits (Inspiralis, Norwich, UK) on streptavidin-coated 96-well microtiter plates from Thermo Scientific Pierce (Thermo Fisher Scientific, Waltham, MA, USA). First, the plates were rehydrated with Wash Buffer and the biotinylated oligonucleotide TFO1 was then immobilized. After washing off the unbound oligonucleotide with Wash Buffer, the enzyme assay was performed. Into each well was added 24 µL of mixture containing 6 µL of Assay Buffer (containing ATP), 0.75 µL of relaxed (for E. coli DNA gyrase supercoiling assay) or supercoiled (for E. coli topoisomerase IV relaxation assay) pNO1 plasmid and 17.25 µL of water. Additionally, 3 µL of a solution of the inhibitor in 10% DMSO containing 0.008% Tween 20 and 3 µL of enzyme (1.5 U) in Dilution Buffer were also added to the wells. […] The TF buffer was added to terminate the enzymatic reaction and after additional incubation for 30 min at room temperature, which allowed for triplex formation (biotin–oligonucleotide–plasmid), the unbound plasmid was washed off using TF buffer. Promega Diamond dye in T10 buffer was then added. […] Here, the compounds were diluted using 2-fold serial dilution steps of the given compound. GraphPad Prism 6.0 software was used to calculate the IC50 values, which were determined in at least two independent measurements, and their means are given as the final result. […] Dose-response curves can be found in Supplementary Materials.

E. coli topoisomerase IV = target: T2, E. coli topoisomerase IV (Escherichia coli, UniProt P0AFI2+P20083); assay: E. coli topoisomerase IV relaxation assay; type: biochemical
T2 construct: purchased Inspiralis, Norwich, UK
Description: as §1, §2

A. baumannii ATCC 17978 = assay: MIC broth microdilution, A. baumannii; type: cell-based; settings: Acinetobacter baumannii, ATCC17978, read-out: MIC A. baumannii ATCC #
Excerpt: (§3) E. coli MG1655 originated from the laboratory collection of Dr. Csaba Pál. […] E. coli K-12 BW25113 single-gene knockout mutant lines ΔdapF, ΔmrcB, ΔsurA, ΔacrB and ΔtolC originated form the Keio collection copy owned by the laboratory of Dr. Csaba Pál.
(§4) Cation-adjusted Mueller Hinton II broth (MHBII) was used for growth of the bacteria under standard laboratory conditions, for antimicrobial susceptibility tests, and for selection of resistant variants. To prepare the MHBII broth, 22 g MHBII powder (containing 3 g beef extract, 17.5 g acid hydrolysate of casein, 1.5 g starch; Becton, Dickinson and Co., Franklin Lakes, NJ, USA) was dissolved in 1 L water. MHBII agar was prepared by addition of 14 g agar (Bacto; Molar Chemicals, Halásztelek, Hungary) to 1 L broth.
(§5) Minimum inhibitory concentrations (MICs) were determined using a standard serial broth microdilution technique, according to the Clinical and Laboratory Standards Institute guidelines. […] For Enterococcus sp., the cells were plated in BHI agar plates, and BHI broth was used to determine the MICs. […] Following the dilutions, each well was seeded with 5 × 10^4 bacterial cells. Each measurement was performed in three parallel replicates, and to avoid possible edge effects in the microwell plates, the outside rows (A, H) were filled with sterile medium. Following the inoculations, the plates were covered with the lids and wrapped in polyethylene plastic bags, to minimize evaporation but to allow O2 transfer. […] After incubation, the OD600 of each well was measured using a microplate reader (Synergy 2; Biotek, Winooski, VT, USA).

P. aeruginosa ATCC 27863 = assay: MIC broth microdilution, P. aeruginosa; type: cell-based; settings: Pseudomonas aeruginosa
Excerpt: as §3, §4, §5

K. pneumoniae ATCC 10031 = assay: MIC broth microdilution, K. pneumoniae; type: cell-based; settings: Klebsiella pneumoniae, ATCC10031, read-out: MIC K. pneumoniae ATCC #
Excerpt: as §3, §4, §5

[1] = system: E. cloacae spp. cloacae ATCC 13047; assay: MIC broth microdilution, E. cloacae; type: cell-based, Enterobacter cloacae; settings: Enterobacter cloacae, ATCC13047, read-out: MIC E. cloacae spp. cloacae ATCC #
E. coli ATCC 25922 = assay: MIC broth microdilution, E. coli ATCC 25922; type: cell-based; settings: Escherichia coli, ATCC25922, read-out: MIC E. coli ATCC #
Excerpt: as §3, §4, §5

E. coli BW25113 WT = assay: MIC, E. coli BW25113 wild-type; type: cell-based; settings: Escherichia coli, BW25113, read-out: Minimum Inhibitory Concentration E. coli BW# WT
Excerpt: as §3, §4, §5

E. coli BW25113 ΔacrB = type: cell-based, Escherichia coli
Excerpt: as §3, §4, §5

E. coli BW25113 ΔdapF = type: cell-based, Escherichia coli
Excerpt: as §3, §4, §5

E. coli BW25113 ΔmrcB = type: cell-based, Escherichia coli
Excerpt: as §3, §4, §5

E. coli BW25113 ΔsurA = type: cell-based, Escherichia coli
Excerpt: as §3, §4, §5

E. coli BW25113 ΔtolC = type: cell-based, Escherichia coli
Excerpt: as §3, §4, §5

E. coli MG1655 WT = assay: MIC, E. coli MG1655 wild-type with PAβN; type: cell-based, Escherichia coli
Excerpt: as §3, §4
as §5, with “USA). […]” for “USA).”

[2] = system: E. coli MG1655 GyrA S83L, D87N ParC S80I, E84G; assay: microbe, parasite or virus in culture; type: cell-based, Escherichia coli
Excerpt: as §3, §4, §5
(§6) These mutated amino acids are the most common sites for target-based resistance in E. coli.

[3] = system: E. coli MG1655 GyrB R136C; assay: microbe, parasite or virus in culture; type: cell-based, Escherichia coli
Excerpt: as §3, §4, §5, §6

[4] = molar conversion in parentheses
[5] = in the presence of 50 µg/mL PAβN

With `Cc1[nH]c(C(=O)Nc2nc3ccc(C(=O)NCCOCCN4CCN(c5cc6c(cc5F)c(=O)c(C(=O)O)cn6C5CC5)CC4)cc3s2)c(Cl)c1Cl.Cl` [Compound 11a, 4-(3-Carboxy-1-cyclopropyl-6-fluoro-4-oxo-1,4-dihydroquinolin-7-yl)-1-(2-(2-(2-(3,4-dichloro-5-methyl-1H-pyrrole-2-carboxamido)benzo[d]thiazole-6-carboxamido)ethoxy)ethyl)piperazin-1-ium chloride] the IC50 (E. coli DNA gyrase) was 130 ± 30 nM, the IC50 (E. coli topoisomerase IV) was over 10000 nM and the “Inhibition of topoisomerase IV (in words)” value (E. coli topoisomerase IV; relaxation assay) was “lack of activity”. It also gave an MIC (A. baumannii ATCC 17978; broth microdilution, 18 h) of over 64 µg/mL, an MIC (A. baumannii ATCC 17978; [4]) of over 82.9 µM and an MIC (P. aeruginosa ATCC 27863; ATCC27863, 18 h, read-out: MIC P. aeruginosa ATCC #) of over 64 µg/mL. It also gave an MIC (P. aeruginosa ATCC 27863; ATCC27863, read-out: MIC P. aeruginosa ATCC #, molar conversion in parentheses, read-out: MIC P. aeruginosa ATCC 27863) of over 82.9 µM, an MIC (K. pneumoniae ATCC 10031; broth microdilution, 18 h) of 4 µg/mL and an MIC (K. pneumoniae ATCC 10031; [4]) of 5.18 µM. The MIC ([1]; broth microdilution, 18 h) was 64 µg/mL, the MIC [1, 4] was 82.9 µM and the MIC (E. coli ATCC 25922; broth microdilution, 18 h) was 32 µg/mL. It also gave an MIC (E. coli ATCC 25922; [4]) of 41.5 µM, an MIC (E. coli BW25113 WT; [4]) of 41.5 µM and an MIC (E. coli BW25113 WT; wild-type) of 32 µg/mL. The “Minimum Inhibitory Concentration E. coli BW25113 ΔacrB” value (E. coli BW25113 ΔacrB; efflux pump mutant) was 32 µg/mL, the “Minimum Inhibitory Concentration E. coli BW25113 ΔacrB” value (E. coli BW25113 ΔacrB; [4]) was “(41.5 µM)” and the “Minimum Inhibitory Concentration E. coli BW25113 ΔdapF” value (E. coli BW25113 ΔdapF; impaired cell-wall mutant) was 32 µg/mL. The “Minimum Inhibitory Concentration E. coli BW25113 ΔdapF” value (E. coli BW25113 ΔdapF; [4]) was “(41.5 µM)”, the “Minimum Inhibitory Concentration E. coli BW25113 ΔmrcB” value (E. coli BW25113 ΔmrcB; impaired cell-wall mutant) was 32 µg/mL and the “Minimum Inhibitory Concentration E. coli BW25113 ΔmrcB” value (E. coli BW25113 ΔmrcB; [4]) was “(41.5 µM)”. The “Minimum Inhibitory Concentration E. coli BW25113 ΔsurA” value (E. coli BW25113 ΔsurA; impaired cell-wall mutant) was 16 µg/mL, the “Minimum Inhibitory Concentration E. coli BW25113 ΔsurA” value (E. coli BW25113 ΔsurA; [4]) was “(20.7 µM)” and the “Minimum Inhibitory Concentration E. coli BW25113 ΔtolC” value (E. coli BW25113 ΔtolC; efflux pump mutant) was 0.5 µg/mL. The “Minimum Inhibitory Concentration E. coli BW25113 ΔtolC” value (E. coli BW25113 ΔtolC; [4]) was “(0.65 µM)”, the MIC (E. coli MG1655 WT; Escherichia coli, MG1655, read-out: Minimum Inhibitory Concentration E. coli MG# WT, 50 µg/mL PAβN, molar conversion in parentheses) was 0.65 µM and the “Minimum Inhibitory Concentration E. coli MG1655 WT” value (E. coli MG1655 WT; [5]) was 0.5 µg/mL. For the same compound, the MIC ([2]; Escherichia coli, MG1655, read-out: Minimum Inhibitory Concentration E. coli MG# GyrA S83L, D87N ParC S80I, E84G) was 10.4 µM, the “Minimum Inhibitory Concentration E. coli MG1655 GyrA S83L, D87N ParC S80I, E84G” value [2, 5] was 8 µg/mL and the MIC ([3]; Escherichia coli, MG1655, read-out: Minimum Inhibitory Concentration E. coli MG# GyrB R#C) was 0.65 µM. The “Minimum Inhibitory Concentration E. coli MG1655 GyrB R136C” value [3, 5] was 0.5 µg/mL and the melting point was 187 to 190 °C.

Reference: paper PMC7822030, “Hybrid Inhibitors of DNA Gyrase A and B: Design, Synthesis and Evaluation” (Pharmaceutics, 2020)
